The values that follow come from paper PMC3369547, “Antimicrobial Constituents of Artemisia afra Jacq. ex Willd. against Periodontal Pathogens” (Evidence-based Complementary and Alternative Medicine : eCAM, 2012).

≈ marks a conversion by molar mass, not a printed value.

Data set [1] has as its system Actinomyces naeslundii (ATCC 19039). Put plainly: Microdilution MIC/MMC (INT) against Actinomyces naeslundii. Conditions: A.n, Gram +ve, table title says mg/mL; for MBC: MMC in title. The data set is classed as cell-based. How it is done: (§1) The microorganisms used in this study include Actinomyces naeslundii (ATCC 19039), Actinomyces israelii (ATCC 10049), Aggregatibacter actinomycetemcomitans (ATCC 33384), Candida albicans (Med I), Porphyromonas gingivalis (ATCC 33277), Prevotella intermedia (ATCC 25611), and Streptococcus mutans (ATCC 25175). Bacteria were grown in the Casein-peptone Soy Agar medium (CASO) (Merck SA (Pty) Ltd.) under anaerobic conditions in a jar with anaerocult A (Merck SA (Pty) Ltd.), at 37°C for 48 hours. Sabouraud Dextrose Agar medium (SDA) (Merck SA (Pty) Ltd.) was used for the culturing of Candida albicans and incubated at 37°C for 24 hours under aerobic conditions. Subculturing was done once weekly.
(§2) The microdilution technique using 96-well microplates was used to obtain the MIC and MMC values of the crude extract against microorganisms under study. The extract was serially diluted in the 96-well plate with 48 hours old microorganisms (5 × 10^6 CFU/mL) grown at 37°C and the final concentration of extract and positive control (CHX) ranged from 25.0 mg/mL to 0.8 mg/mL. Microbial growth was indicated by adding 40 μL of (0.2 mg/mL) p-iodonitrotetrazolium violet (INT) (Sigma-Aldrich, South Africa) to microplate wells and incubated at 37°C for 48 hours. MIC was defined as the lowest concentration that inhibited the colour change of INT. […] These suspensions were reincubated at 37°C for 48 hours. The MMC was determined as the lowest concentration of extract which inhibited 100% growth of microorganisms.

The subject of data set [2] is Actinomyces israelii (ATCC 10049). The experiment in a line: Microdilution MIC/MMC (INT) against Actinomyces israelii. To be noted: A.i, Gram +ve, table title says mg/mL; for MBC: MMC in title. The data set is classed as cell-based. How it is done:
as §1, §2

The test system of data set [3] is Aggregatibacter actinomycetemcomitans (ATCC 33384). The experiment in a line: Microdilution MIC/MMC (INT) against Aggregatibacter actinomycetemcomitans. To be noted: A.a, Gram –ve, table title says mg/mL; for MBC: MMC in title. The data set is classed as cell-based. How it is done:
as §1, §2

Data set [4] concerns Prevotella intermedia (ATCC 25611). The experiment in a line: Microdilution MIC/MMC (INT) against Prevotella intermedia. The data set is classed as cell-based. Conditions: P.i, Gram –ve, table title says mg/mL; for MBC: MMC in title. How it is done:
as §1, §2

For data set [5], the system named is Porphyromonas gingivalis (ATCC 33277). Put plainly: Microdilution MIC/MMC (INT) against Porphyromonas gingivalis. Format: cell-based. To be noted: P.g, Gram –ve, table title says mg/mL; for MBC: MMC in title. How it is done: as §1, §2
Another data set deals with Candida albicans (Med I). The experiment in a line: Microdilution MIC/MMC (INT) against Candida albicans. Format: cell-based. To be noted: C.a, Yeast, table title says mg/mL; for MBC: MMC in title. The method, then:
as §1, §2

A further data set has as its system oral microorganisms. The experiment in a line: Microdilution MIC/MMC, summary over tested microbial species. Format: cell-based. Conditions: against A. israelii and A. naeslundii. How it is done:
as §1, §2

Data set [6] is described as follows: DPPH free radical scavenging assay. The data set is classed as biochemical. Conditions: 37°C, 30 min, 517 nm. How it is done: The free radical scavenging activity was measured using 1, 1 diphenyl-2-picryl-hydraxyl (DPPH) assay with slight modifications. The ethanol extract of A. afra and Vitamin C (positive control) 1000 μg/mL (20 μL) was added in the first three wells of a 96-well plate containing 200 μL of distilled water to make up final concentration of 100 μg/mL and the remaining wells were filled with 110 μL of distilled water. The first raws containing the extract/compounds were serially diluted to wells which contain 110 μL of distilled water, and later, 90 μL of methanolic solution of DPPH ([…]) was added to all the wells. The final concentrations of the extract/compounds ranged from 100 to 0.8 μg/mL. The plates were incubated at 37°C for 30 min and the absorbance was measured at 517 nm using the ELISA plate reader. The percent radical scavenging activity by A. afra was determined by comparison with ethanol (blank). The inhibition ratio was calculated as follows: % DPPH radical-scavenging = (AC-AS)/AC × 100, where AC is absorbance of the control solution (containing only DPPH solution), and AS is the absorbance of the sample in DPPH solution. The percentage of DPPH radical-scavenging was plotted against the plant extract/compounds concentrations (μg/mL) to determine the concentration of extract/compound required to scavenge DPPH by 50% (EC50).

The nature of data set [7]: XTT cell proliferation (cytotoxicity) assay on McCoy cells. Conditions: mouse. The data set is classed as cell-based. How it is done: (§3) Extract and compounds were dissolved in dimethyl sulfoxide (DMSO) and stored at −20°C. All tested compounds were diluted to the final concentration with RPMI 1640 and control cultures were diluted with 0.1% DMSO.
(§4) McCoy cells were maintained in monolayer culture at 37°C and 5% CO2 with 10% […] Medium, 10 μg/mL of penicillin, 10 μg/mL, streptomycin, 40 μg/mL gentamycin, and 0.25 μg/mL fungizone.
(§5) A microtiter plate with McCoy cells was used for testing all the ethanol extracts for cytotoxicity following the method of [26]. Cytotoxicity was measured by the XTT (sodium 3′-[1-(phenyl amino-carbonyl)-3,4-tetrazolium]-bis-[4-methoxy-6-nitro] benzene sulfonic acid hydrate) method using a cell proliferation kit II (Roche Diagnostics GmbH). Hundred microlitres of McCoy cells (1 × 10^5 mL) was seeded onto a microtiter plate and incubated for 24 h to allow the cells to attach to the bottom of the plate. Dilution series were made of the extract and compound and the various concentrations (400 to 3.1 μg/mL) were added to the microtitre plate and incubated for 48 h. The XTT reagents were added to a final concentration of 0.3 mg/mL and the cells were incubated for 1-2 hours. The positive drug control (Zearalenone) at concentrations range of (10 μg/mL to 0.6 μg/mL) was included in the assay. After incubation the absorbance of the colour was spectrophotometrically quantified using an ELISA plate reader, which measured the optical density at 490 nm with a reference wavelength of 690 nm. The assay was carried out in triplicate.

Another data set concerns lung cancer (A549) cell. More on the design: method as in PMID 15246561. To be noted: A549 cells; read-out: IC50 cell proliferation; cited from earlier work.
A further data set deals with McCoy fibroblast cells. Put plainly: XTT cell proliferation (cytotoxicity) assay on McCoy cells. The data set is classed as cell-based. Conditions: McCoy cells, XTT, 48 h. How it is done: as §3, §4, §5
Where [8] appears, read: Actinomyces naeslundii, ATCC19039.
[9] abbreviates: Actinomyces israelii, ATCC10049.
Setting [10] is: Aggregatibacter actinomycetemcomitans, ATCC33384.
The mark [11] stands for this setting: Prevotella intermedia, ATCC25611.
Setting [12] is: Porphyromonas gingivalis, ATCC33277.

With `COc1ccc(-c2cc(=O)c3c(O)cc(O)cc3o2)cc1` [compound 1, acacetin], the MBC in data set [1] (setting [8]) is 1000 µg/mL (≈ 3.52 mM); in data set [2] (setting [9]), 500 µg/mL (≈ 1.76 mM); in [3] (setting [10]), above 1000 µg/mL; in [4] (setting [11]) it was above 1000 µg/mL; in data set [5] (setting [12]), above 1000 µg/mL; against Candida albicans (Med I), above 1000 µg/mL. Besides, the MIC is 1000 µg/mL (≈ 3.52 mM) in data set [1] (setting [8]); 250 µg/mL (≈ 0.879 mM) in data set [2] (setting [9]); above 1000 µg/mL in data set [3] (setting [10]); 1000 µg/mL (≈ 3.52 mM) in data set [4] (setting [11]); 1000 µg/mL (≈ 3.52 mM) in [5] (setting [12]); above 1000 µg/mL against Candida albicans (Med I). Also, the MIC in the data set on oral microorganisms (read-out: lowest MIC and MMC value) came out at 250 µg/mL (≈ 0.879 mM). Besides, in [6], the “DPPH scavenging IC50” value came out at 2.39 µg/mL. This compound also showed an IC50 at 48 h in data set [7] of 35.4 µg/mL (≈ 0.125 mM). For the same compound, the IC50 in the data set on lung cancer (A549) cell is 9.46 µM.

Regarding scopoletin [compound 3], the MBC in data set [1] was above 1.0 µg/mL; in [2], 500 µg/mL; in [3] it was above 1000 µg/mL; in data set [4], 1.0 µg/mL; in data set [5] it was above 1000 µg/mL; in the data set on Candida albicans (Med I), above 1000 µg/mL. The MIC in data set [1] is 1000 µg/mL; in data set [2], 250 µg/mL; in data set [3], above 1000 µg/mL; in [4], 500 µg/mL; in data set [5], above 1.0 µg/mL; against Candida albicans (Med I) it was above 1000 µg/mL. In addition, in the data set on oral microorganisms, the “lowest MIC and MMC value” turned out to be 250 µg/mL. In addition, the “DPPH scavenging IC50” value in data set [6] worked out at 1.24 µg/mL. For the same compound, the “IC50 (cytotoxicity)” value in the data set on McCoy fibroblast cells came out at 132.5 µg/mL.
